We go through two compounds from patent US20210276960A1, “INHIBITORS OF TISSUE TRANSGLUTAMINASE 2 (TG2) AND USES THEREOF” (Northwestern University, priority 2020, published 2021).

The subject of one data set is FN45-TG2 interaction. Kind of data set: Bio-layer interferometry (BLI) of FN45-TG2 binding. The method, then:
(§1) The 45 kDa fibronectin fragment (FN45) corresponding to the TG2 binding region (Sigma, # F0162) was biotinylated using Biotin (Type A) Fast Conjugation Kit (Abcam, # ab201795). Biotinylated FN45 (10 μg/mL in PBS) was captured on pre-hydrated streptavidin-coated sensors (Pall Forte Bio SAX 18-5117). At each TG2 concentration, the binding kinetics were determined by following this sequence run: baseline (PBS for 30 s), association step (varying concentrations of TG2 in PBS for 120 s), and dissociation step (PBS for 120 s). A new FN45 biosensor was prepared for each run. To analyze the effect of the inhibitor MT4 on the interaction between TG2 and FN, a solution of 20 μg/mL of bio-FN45 was used for capturing FN45 on the streptavidin-coated sensors and the association step was 90 s. For each sensor, the capturing step was measured in real-time in order to assess the stability of the signal and the reproducibility between sensors. The saturation level Rmax was 0.6 (+0.08) for all sensors and no dissociation of the biotinylated FN45 was observed over 60 minutes. […] For the experiments with (TG2+MT4), controls were performed at each MT4 concentration and Rmax values were corrected for non-specific binding and any effects of DMSO on the TG2-FN45 interaction (these effects were below 8%). All BLI experiments were performed at 22° C. Data fitted globally using the BLItz Pro 1.10.31 software package as described(14, 15). Isothermal titration calorimetry (ITC) was performed at 25° C. by titrating 160 μM MT4 into a 10 μM solution of TG2 (Sigma, #T5398).
(In BLI a coated tip is dipped into the sample, and binding shifts an interference pattern.)

In another data set the target is T1, TG2 (Cavia cutleri, UniProt P08587).
T1 construct: purchased Sigma T5398
T1 sequence (P08587 whole entry): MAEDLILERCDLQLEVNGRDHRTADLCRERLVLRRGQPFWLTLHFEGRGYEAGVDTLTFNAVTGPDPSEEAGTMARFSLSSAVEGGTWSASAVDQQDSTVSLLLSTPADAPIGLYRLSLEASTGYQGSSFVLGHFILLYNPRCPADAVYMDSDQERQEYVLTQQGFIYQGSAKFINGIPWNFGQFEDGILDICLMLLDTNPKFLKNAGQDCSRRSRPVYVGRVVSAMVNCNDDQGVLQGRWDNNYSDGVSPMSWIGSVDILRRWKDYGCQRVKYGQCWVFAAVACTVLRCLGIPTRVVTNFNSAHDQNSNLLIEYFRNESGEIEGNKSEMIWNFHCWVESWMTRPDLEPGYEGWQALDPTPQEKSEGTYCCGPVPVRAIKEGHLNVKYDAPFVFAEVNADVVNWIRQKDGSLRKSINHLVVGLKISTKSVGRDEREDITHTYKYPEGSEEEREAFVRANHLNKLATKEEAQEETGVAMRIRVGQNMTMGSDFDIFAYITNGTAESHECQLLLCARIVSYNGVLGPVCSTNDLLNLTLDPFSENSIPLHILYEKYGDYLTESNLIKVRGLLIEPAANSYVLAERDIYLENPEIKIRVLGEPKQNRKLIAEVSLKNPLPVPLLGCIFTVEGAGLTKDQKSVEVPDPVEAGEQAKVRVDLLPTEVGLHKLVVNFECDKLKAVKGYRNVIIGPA
Kind of data set: Isothermal titration calorimetry (ITC). The class given is binding. The protocol:
as §1, with “Data fitted globally using the BLItz Pro 1.10.31 software package as described(14, 15). Isothermal titration calorimetry (ITC) was performed at 25° C. by titrating 160 μM MT4 into a 10 μM solution of TG2 (Sigma, #T5398).” left out
On the technique in general: In ITC the heat of successive injections is recorded.

The subject of data set [1] is SKOV3 cells. Put plainly: Wound-healing assay, SKOV3. The class given is cell-based. To be noted: 8 μM, 24 hours. The protocol: Wound Healing was Performed in 12-Well Plates Coated with 1 μg/Ml FN (Sigma, #1141) overnight at 4° C. OC cells were plated at a density of 2×10^5 cells/well in media containing 2% FBS. Under these conditions cells adhered on substrate, but cell proliferation was minimized. After 16 hours, the cell monolayer was scraped in straight line. Cell debris was removed and serum free media containing selected SMIs or control was replenished. For consistency during image acquisition, a reference point was marked close to the scratch mark and the plate was imaged under phase-contrast microscope at 0, 2, 6, 12 and 24 hours. Wound closure was assessed as the distance between the wound edges, calculated and quantified using the Image Pro-Express software. The percentage of wound closure was evaluated using the formula […]. The rate of migration (μm/h) of OC cells into the wound space was evaluated as the distance difference between wound edges at 0 and 24 h, divided by 24. The experiments were performed in duplicates.

Data set [2] relates to OVCAR5 cells adhesion to FN. Kind of data set: Solid phase adhesion assay to FN, OVCAR5. More on the design: inhibition of adhesion to FN relative to TG53: dose or concentration left out as unconfirmed. The class given is cell-based, human. The protocol:
Cells labeled with calcein AM (Life Technologies, #L3224) were seeded at a density of 4×10^4 cells in 96-well plates pre-coated with FN (5 μg/mL, Sigma, #F1141), and blocked using 1% BSA (Sigma, #A9647) in PBS in the presence of selected compounds diluted at the specified concentrations, in serum free media. After 45 minutes, unattached cells were washed using PBS containing 1 mM MgCl2(Sigma, #M8266) and adherent cells were quantified in a SpectraMaxGeminiXS fluorescence plate reader (Molecular Devices, Palo Alto, Calif.) at 530 nm wavelength. Experiments were performed inquadruplicate and repeated at least twice.

Data set [3] is described as follows: Pharmacokinetic assessment. The format is in vivo, mice. To be noted: for AUC0-∞ / Cl/F / cmax / t1/2 / tmax: 17.46 mg/Kg. An excerpt:
Experiment 2: Pharmacokinetic (PK) assessment. PK studies using the highest safe dose will be conducted on lead compounds that were functionally validated and for which a single dose NOAEL could be established (Aim 3A). These will be carried out by the Sanford Burnham Pharmacology Core (see attached LOS). While ip dosing may not be the preferred route of administration for an eventual cancer drug, these studies using ip dosing will give us data on many PK parameters, including bioavailability, which will be useful in prioritizing and triaging optimized compounds for testing using other routes, e.g., oral. PK parameters will be determined including Cmax (maximum plasma concentration), Tmax (time point of maximum concentration), VdSS (volume of distribution at steady-state), ClE (elimination clearance), AUC (area under the curve) t, (elimination half-life), and oral bioavailability (% F) will be obtained (with the inclusion of an i.v. dosed cohort). […] Our goal will be to identify a compound that has a plasma AUC >5× its cell viability EC50, a t1-2>2 hrs, and low-to-moderate clearance. […] Toxicology and pathology measures will be performed only after anti-tumor activity of lead SMIs will be determined, if compounds are found worthy of detailed study (Expt #3). This approach will maximize use of animals and resources. In brief, peripheral blood counts will be obtained; selected organs and tissues (lung, heart, liver, kidney, colon, bone marrow) will be harvested. Bone marrow cellularity and colony formation assay will be determined.

Data set [4] concerns SKOV3 cells. To be noted: cited from earlier work.
The next data set concerns OC cells. As to conditions: 10 μM; not shown, see ref 11; cited from earlier work.
A further data set has as its target T2, purified TG2 (UniProt P08587).
T2 construct: purchased Sigma T5398
To be noted: not shown, see ref 11; cited from earlier work.

T2 sequence (P08587 whole entry): as above

Regarding `Cc1cc(N(C)C)nc(Nc2ccc(NC(=O)Cc3ccccc3)cc2)n1` [MT-4], the “FN45 and rTG2 complex formation” value in the data set with FN45-TG2 interaction (FN45 on sensors incubated with MT4, 16 nM to 500 μM, 15, 30, 45 minutes) was “not affected”. In addition, the “dissociation of FN45-TG2” value in the data set with FN45-TG2 interaction (TG2 pre-incubated with MT4) is “faster dissociation”. The “association between FN45 and rTG2” value with FN45-TG2 interaction (rTG2 incubated with MT4 prior to BLI) was “Dose-dependent inhibition”. The same compound returned a Kd at TG2 of 5.1 µM. On TG2 (160 μM MT4 titrated into 10 μM TG2, 25° C.), the “change in enthalpy, ΔH” value was -20.5 kcal/mol. Moreover, the “motility (scratch repair)” value in the data set on SKOV3 cells [1] is “inhibited”. The “inhibition of adhesion to FN relative to TG53” value in data set [2] is given as “more active than TG53”. Further, the “cell adhesion to FN, dose dependence” value in data set [2] (2 μM-25 μM) is “dose-dependent inhibitory effect”.

`COc1ccc(Cl)cc1C(=O)Nc1ccc(Nc2nc(C)cc(N(C)C)n2)cc1` [TG53]: in data set [3] (IV), the “AUC0-∞” value stood at 2913 ng·h/mL, the Cl/F worked out at 0.12 L/h, the cmax is on record as 4045 ng/mL and the t1/2 was found to be 3.4 h. This compound also returned a tmax in data set [3] (IV) of 0 h. In data set [3] (i.p.), the “AUC0-∞” value was found to be 1212 ng·h/mL, the Cl/F was 0.29 L/h, the cmax was determined as 1313 ng/mL and the t1/2 was 19.5 h. In data set [3] (i.p.), this compound had a tmax of 0.5 h. This compound also had a t/2 in data set [3] (ip administration) of 19.5 h. In data set [3] (iv administration), this compound registered a t/2 of 3.4 h. Also, in the data set with SKOV3 cells [4], the cytotoxicity entry is recorded as “not cytotoxic”. In addition, the “wound closure, cell migration rate, and invasion through matrigel coated trans-well plates” value with OC cells is “decreased”. Further, the TG2 enzymatic activity entry at purified TG2 is reported as “did not inhibit”.

The Kd is the concentration at which binding is half-saturated.
